The target of the assay is T1, MAPKAPK5 (Homo sapiens, UniProt Q8IW41).
T1 sequence (Q8IW41 1-471 isoform Q8IW41-2): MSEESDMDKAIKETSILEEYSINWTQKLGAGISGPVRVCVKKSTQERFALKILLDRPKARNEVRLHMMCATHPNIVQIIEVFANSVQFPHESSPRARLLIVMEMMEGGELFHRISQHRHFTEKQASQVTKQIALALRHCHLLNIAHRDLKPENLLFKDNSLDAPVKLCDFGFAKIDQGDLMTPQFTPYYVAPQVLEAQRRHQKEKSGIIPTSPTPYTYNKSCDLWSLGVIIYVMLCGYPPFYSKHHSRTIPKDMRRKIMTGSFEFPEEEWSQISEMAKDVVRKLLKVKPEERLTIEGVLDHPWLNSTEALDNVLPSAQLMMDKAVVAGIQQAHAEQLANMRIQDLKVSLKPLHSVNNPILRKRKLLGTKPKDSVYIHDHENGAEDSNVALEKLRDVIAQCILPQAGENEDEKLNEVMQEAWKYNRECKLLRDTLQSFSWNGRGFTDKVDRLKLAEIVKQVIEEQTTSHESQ
In words: MAPKAP-K5 assay (FlashPlate, 33P-ATP). The class given is biochemical. The conditions noted are these: 0.6 μM ATP; 3 μM peptide substrate; room temperature 30 minutes. How it is done: 3 μM MAPKAP-K5 peptide substrate
The term IC50 denotes the concentration that gives 50% inhibition. Low values mean greater potency in that assay, high ones weaker potency in that assay. On to `O=C1NCc2cc(-c3cnc(Nc4ncc(CN5CCOCC5)s4)c4nccn34)ccc21` [Example 16, 5-(8-(5-(morpholinomethyl)thiazol-2-ylamino)imidazo[1,2-a]pyrazin-5-yl)isoindolin-1-one], for which the IC50 lay within 101 to 500 nM.

`c1cn2c(-c3cn[nH]c3)cnc(Nc3ncc(CN4CCOCC4)s3)c2n1` [Example 15, N-(5-(1H-pyrazol-4-yl)imidazo[1,2-a]pyrazin-8-yl)-5-(morpholinomethyl)thiazol-2-amine] gave an IC50 of more than 1000 nM.

On to `O=C1NCc2cc(-c3cnc(Nc4ncc(C(=O)N5CCOCC5)s4)c4nccn34)ccc21` [Example 13, 5-(8-(5-(morpholine-4-carbonyl)thiazol-2-ylamino)imidazol[1,2-a]pyrazin-5-yl)isoindolin-1-one], for which the IC50 was 501 to 1000 nM.

With `O=C1NCc2cc(-c3cnc(Nc4nccs4)c4nccn34)ccc21` [Example 6, 5-(8-(thiazol-2-ylamino)imidazo[1,2-a]pyrazin-5-yl)isoindolin-1-one], the IC50 is 101 to 500 nM.

As to `O=C1NCc2cc(-c3cnc(Nc4nnc(CCN5CCCCC5)s4)c4nccn34)ccc21` [Example 14, 5-(8-(5-(2-(piperidin-1-yl)ethyl)-1,3,4-thiadiazol-2-ylamino)imidazo[1,2-a]pyrazin-5-yl)isoindolin-1-one], the concentration for half-maximal inhibition (IC50) was 501 to 1000 nM.

As to `Cc1cnc(Nc2ncc(-c3ccc4c(c3)CNC4=O)n3ccnc23)s1` [Example 11, 5-(8-(5-methylthiazol-2-ylamino)imidazo[1,2-a]pyrazin-5-yl)isoindolin-1-one], the IC50 was 501 to 1000 nM.

Turning to `CC(C)N1CCN(C(=O)c2cnc(Nc3ncc(-c4cn[nH]c4)n4ccnc34)s2)CC1` [Example 23], the IC50 is more than 1000 nM.

Regarding `CN1CCN(c2nnc(Nc3ncc(-c4ccc5c(c4)CNC5=O)n4ccnc34)s2)CC1` [Example 20, 5-(8-(5-(4-methylpiperazin-1-yl)-1,3,4-thiadiazol-2-ylamino)imidazo[1,2-a]pyrazin-5-yl)isoindolin-1-one], the IC50 fell in the range of 501 to 1000 nM.

Compound `CC(C)N1CCN(Cc2cnc(Nc3ncc(-c4ccc5c(c4)CNC5=O)n4ccnc34)s2)CC1` [Example 18, 5-(8-(5-((4-isopropylpiperazin-1-yl)methyl)thiazol-2-ylamino)imidazo[1,2-a]pyrazin-5-yl)isoindolin-1-one] displayed a 50% inhibitory concentration (IC50) of 101 to 500 nM.

In turn, `O=C1NCc2cc(-c3cnc(Nc4ncc(CN5CCCCC5)s4)c4nccn34)ccc21` [Example 24, 5-(8-(5-(piperidin-1-ylmethyl)thiazol-2-ylamino)imidazo[1,2-a]pyrazin-5-yl)isoindolin-1-one] had a half-inhibitory concentration (IC50) of more than 1000 nM.

`c1nc2c(Nc3nc(CN4CCOCC4)cs3)ncc(-c3cn[nH]c3)n2n1` [Example 3, N-(5-(1H-pyrazol-4-yl)-[1,2,4]triazolo[1,5-a]pyrazin-8-yl)-4-(morpholinomethyl)thiazol-2-amine] registered an IC50 of more than 1000 nM.

For the compound `c1nc2c(Nc3nc(CN4CCCCC4)cs3)ncc(-c3cn[nH]c3)n2n1` [Example 25, N-(5-(1H-pyrazol-4-yl)-[1,2,4]triazolo[1,5-a]pyrazin-8-yl)-4-(piperidin-1-ylmethyl)thiazol-2-amine], the IC50 is more than 1000 nM.

`NC(=O)c1cc(-c2cnc(Nc3nc(CN4CCCCC4)cs3)c3ncnn23)co1` [Example 4, 4-(8-(4-(piperidin-1-ylmethyl)thiazol-2-ylamino)-[1,2,4]triazolo[1,5-a]pyrazin-5-yl)furan-2-carboxamide] displayed a concentration for half-maximal inhibition (IC50) of 1 to 100 nM.

The compound `CN(C)Cc1cnc(Nc2ncc(-c3cn[nH]c3)n3ccnc23)s1` [Example 17, N-(5-(1H-pyrazol-4-yl)imidazo[1,2-a]pyrazin-8-yl)-5-((dimethylamino)methyl)thiazol-2-amine] came in with an IC50 of more than 1000 nM.

On to `O=C1NCc2cc(-c3cnc(Nc4nncs4)c4nccn34)ccc21` [Example 19, 5-(8-(1,3,4-thiadiazol-2-ylamino)imidazo[1,2-a]pyrazin-5-yl)isoindolin-1-one], for which the IC50 was more than 1000 nM.

In the case of `O=C1NCc2cc(-c3cnc(Nc4nc(CN5CCCCC5)cs4)c4nccn34)ccc21` [Example 9, 5-(8-(4-(piperidin-1-ylmethyl)thiazol-2-ylamino)imidazo[1,2-a]pyrazin-5-yl)isoindolin-1-one], the IC50 was 1 to 100 nM.

`O=C1NCc2cc(-c3cnc(Nc4nc(CN5CCOCC5)cs4)c4nccn34)ccc21` [Example 1, 5-(8-(4-(morpholinomethyl)thiazol-2-ylamino)imidazo[1,2-a]pyrazin-5-yl)isoindolin-1-one] returned an IC50 of 101 to 500 nM.

`Cc1nc(Nc2ncc(-c3ccc4c(c3)CNC4=O)n3ccnc23)sc1C(=O)N(C)C` [Example 10, N,N,4-trimethyl-2-(5-(1-oxoisoindolin-5-yl)imidazo[1,2-a]pyrazin-8-ylamino)thiazole-5-carboxamide] had an IC50 of 101 to 500 nM.

Compound `O=C1NCc2cc(-c3cnc(Nc4nc5c(s4)CCC5)c4nccn34)ccc21` [Example 12, 5-(8-(5,6-dihydro-4H-cyclopenta[d]thiazol-2-ylamino)imidazo[1,2-a]pyrazin-5-yl)isoindolin-1-one] returned a concentration for half-maximal inhibition (IC50) of more than 1000 nM.

`c1csc(Nc2ncc(-c3cn[nH]c3)n3ccnc23)n1` [Example 7, N-(5-(1H-pyrazol-4-yl)imidazo[1,2-a]pyrazin-8-yl)thiazol-2-amine] yielded a half-inhibitory concentration (IC50) of more than 1000 nM.

These data come from patent US9006237B2, “Fused pyrazine compounds useful for the treatment of degenerative and inflammatory diseases” (Janssen Pharmaceutica NV, priority 2007, dated 2015).
